From US9242969B2, “Biaryl amide compounds as kinase inhibitors” (Novartis AG, priority 2013, dated 2016)

Biological target: C-Raf TR (Δ1-324 deletion mutant with activating mutations) (Homo sapiens (Human), UniProt P04049, Y340E/Y341E)
Assay type: biochemical
Settings: truncated C-Raf (Δ1-324), ATP 3 uM, 10 nM biotinylated MEK1 kinase dead
Description: biotinylated Mek, Kinase dead approximately 10 nM
Pre-incubation time with compounds 30 minutes at room temperature
Reaction time 2 hours at room temperature
Plates were sealed and stored overnight in the dark at room temperature. Plates were counted in a Perkin Elmer Envision instrument.

C-Raf TR (Δ1-324 deletion mutant with activating mutations), sequence (P04049 325-648 Y340E/Y341E): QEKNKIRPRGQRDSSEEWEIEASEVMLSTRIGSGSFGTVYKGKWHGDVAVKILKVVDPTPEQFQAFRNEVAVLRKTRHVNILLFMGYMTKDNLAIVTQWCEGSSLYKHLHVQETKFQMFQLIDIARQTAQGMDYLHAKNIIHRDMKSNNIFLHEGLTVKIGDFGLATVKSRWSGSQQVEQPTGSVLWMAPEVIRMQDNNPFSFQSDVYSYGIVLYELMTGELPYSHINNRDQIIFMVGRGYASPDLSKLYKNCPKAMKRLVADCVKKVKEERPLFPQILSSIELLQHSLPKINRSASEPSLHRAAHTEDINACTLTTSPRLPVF

SMILES	IC50
Cc1ccc(C(=O)Nc2cccc(C(F)(F)F)c2)cc1-c1nc(N2CCOCC2)cc(N2CCOCC2)n1 [Example 14, 3-(4,6-dimorpholinopyrimidin-2-yl)-4-methyl-N-(3-(trifluoromethyl)phenyl)benzamide]	0.803 nM
Cc1ccc(C(=O)Nc2cccc(C(F)(F)F)c2)cc1-c1ccnc(N2CCOCC2)c1 [Example 63, 4-Methyl-3-(2-morpholinopyridin-4-yl)-N-(3-(trifluoromethyl)phenyl)benzamide]	0.508 nM
Cc1ccc(NC(=O)c2cccc(C(F)(F)F)c2)cc1-c1cncc(N2CCOCC2)n1 [Example 118, N-(4-methyl-3-(6-morpholinopyrazin-2-yl)phenyl)-3-(trifluoromethyl)benzamide]	0.308 nM
Cc1ccc(NC(=O)c2cccc(C(F)(F)F)c2)cc1-c1cn(C)c(=O)c(N2CCOCC2)n1 [Example 119, N-(4-methyl-3-(4-methyl-6-morpholino-5-oxo-4,5-dihydropyrazin-2-yl)phenyl)-3-(trifluoromethyl)benzamide]	0.27 nM
Cc1ccc(NC(=O)c2cccc(C(F)(F)F)c2)cc1-c1csc(N2CCOCC2)n1 [Example 199, N-(4-methyl-3-(2-morpholinothiazol-4-yl)phenyl)-3-(trifluoromethyl)benzamide]	1.29 nM
